Measured values: patent US20080234254A1, “Inhibitors of Histone Deacetylase” (UNIVERSITY OF LEEDS, priority 2004, published 2008)
Read-outs that look alike come from different tables or passages of the source.

How the values were obtained:
Type in all cases: cell-based
ACHN = test: Screening against cancer cell lines: ACHN (Renal)
From the text: (§1) Screening of Benzamide Derivatives Against Cancer Cell Lines Tables 1 and 2 tabulate by way of example the results obtained for compounds (4) and (6).
(§2) 7 renal cancer cell lines were screened against both compound (4) and MS275.

colon cancer cell lines = test: Comparison test versus MS275: 6 colon cancer cell lines; settings: in 3 cell lines of 6 colon cancer cell lines screened
From the text: (§3) 6 colon cancer cell lines were screened against both compound (4) and MS275.

[1] = system: melanoma cancer cell lines; test: Comparison test versus MS275: 7 melanoma cancer cell lines; settings: in 3 cell lines of 7 melanoma cancer cell lines screened
From the text: (§4) 7 melanoma cancer cell lines were screened against both compound (4) and MS275.

SK-OV-3 = test: Comparison test versus MS275: SK-OV-3 (ovarian cancer); settings: Homo sapiens, read-out: potency (quantity not named; values match GI50 of Table 1)
From the text: (§5) 6 ovarian cancer cell lines were screened against both compound (4) and MS275.

[2] = system: non-small cell lung cancer cell lines; test: Comparison test versus MS275: 8 non-small cell lung cancer cell lines; settings: in 2 cell lines of 8 non-small cell lung cancer cell lines screened
From the text: (§6) 8 non-small cell lung cancer cell lines were screened against both compound (4) and MS275.

HCT-15 = test: Screening against cancer cell lines: HCT-15 (Colon)
From the text: as §1, §3

MDA-MB-231/ATCC = test: Screening against cancer cell lines: MDA-MB-231/ATCC (Breast)
From the text: as §1
(§7) 7 breast cancer cell lines were screened against both compound (4) and MS275.

NCI/ADR-RES = test: Screening against cancer cell lines: NCI/ADR-RES (Breast)
From the text: as §1, §7

OVCAR-4 = test: Comparison test versus MS275: OVCAR-4 (ovarian cancer); settings: Homo sapiens, read-out: potency (quantity not named; values match GI50 of Table 1)
From the text: as §5

SK-MEL-28 = test: Screening against cancer cell lines: SK-MEL-28 (Melanoma)
From the text: as §1, §4

SR = test: Screening against cancer cell lines: SR (Leukaemia); settings: Leukaemia
From the text: as §1

breast cancer cell lines = test: Comparison test versus MS275: 7 breast cancer cell lines; settings: in 3 cell lines of 7 breast cancer cell lines screened
From the text: as §7

UACC-257 = test: Screening against cancer cell lines: UACC-257 (Melanoma)
From the text: as §1, §4

786-0 = test: Comparison test versus MS275: 786-0 (renal cancer); settings: Homo sapiens, read-out: potency (quantity not named; values match GI50 of Table 1)
From the text: as §2

UACC-62 = test: Screening against cancer cell lines: UACC-62 (Melanoma)
From the text: as §1

RPMI-8226 = test: Screening against cancer cell lines: RPMI-8226 (Leukaemia)
From the text: as §1

NCI-H522 = test: Screening against cancer cell lines: NCI-H522 (Non-Small Cell Lung)
From the text: as §1, §6

renal cancer cell lines = test: Comparison test versus MS275: 7 renal cancer cell lines; settings: in 4 cell lines of 7 renal cancer cell lines screened
From the text: as §2

OVCAR-8 = test: Screening against cancer cell lines: OVCAR-8 (Ovarian)
From the text: as §1

cancer cell lines = test: Screening of benzamide derivatives against cancer cell lines (summary); settings: summary of Tables 1 and 2
From the text: as §1

HCC-2998 = test: Screening against cancer cell lines: HCC-2998 (Colon)
From the text: as §1, §3

IGROV1 = test: Screening against cancer cell lines: IGROV1 (Ovarian)
From the text: as §1, §5

RXF 393 = test: Screening against cancer cell lines: RXF 393 (Renal)
From the text: as §1, §2

SN12C = test: Screening against cancer cell lines: SN12C (Renal)
From the text: as §1, §2

MDA-MB-435 = test: Screening against cancer cell lines: MDA-MB-435 (Breast)
From the text: as §1, §7

LOX IMVI = test: Screening against cancer cell lines: LOX IMVI (Melanoma)
From the text: as §1, §4

KM-12 = test: Comparison test versus MS275: KM-12 (colon cancer); settings: Homo sapiens, KM12, read-out: potency (quantity not named; values match GI50 of Table 1)
From the text: as §3

[3] = Homo sapiens, Renal, Table 1, read-out: GI50
[4] = Homo sapiens, Renal, Table 1, read-out: LC50 (the source's name)
[5] = Homo sapiens, renal cancer, comparison versus MS275, read-out: potency (quantity not named; values match GI50 of Table 1)
[6] = Homo sapiens, Breast, Table 1, read-out: GI50
[7] = Homo sapiens, Breast, Table 1, read-out: LC50 (the source's name)
[8] = Homo sapiens, breast cancer, comparison versus MS275, read-out: potency (quantity not named; values match GI50 of Table 1)
[9] = Homo sapiens, Table 1, read-out: LC50 (the source's name)

C=C(CN1CCc2ccccc2C1)c1ccc(C(=O)Nc2ccccc2N)cc1 [Compound (4), N-(2-Amino-phenyl)-4-[1-(3,4-dihydroisoquinolin-2(1H)-ylmethyl)vinyl]benzamide]
GI50 (ACHN; [3]): 844 nM | CC50 (ACHN; [4]): 14400 nM | GI50 (ACHN; [5]): 840 nM | TGI (ACHN; Renal, Table 1): 2800 nM | potency over MS275 (colon cancer cell lines): > 2 fold | potency over MS275 [1]: > 2 fold | GI50 (SK-OV-3): 1080 nM | potency over MS275 [2]: > 2 fold | TGI (HCT-15; HCT-15, Colon, Table 1): 7800 nM | GI50 (HCT-15; Homo sapiens, HCT-15, Colon, Table 1, read-out: GI50): 836 nM | CC50 (HCT-15; Homo sapiens, HCT-15, Colon, Table 1, read-out: LC50 (the source's name)): > 50000 nM | GI50 (HCT-15; Homo sapiens, HCT-15, colon cancer, comparison versus MS275, read-out: potency (quantity not named; values match GI50 of Table 1)): 840 nM | TGI (MDA-MB-231/ATCC; Breast, Table 1): 2700 nM | GI50 (MDA-MB-231/ATCC; [6]): 748 nM | CC50 (MDA-MB-231/ATCC; [7]): 19200 nM | GI50 (MDA-MB-231/ATCC; [8]): 750 nM | TGI (NCI/ADR-RES; Breast, Table 1): 2000 nM | GI50 (NCI/ADR-RES; [6]): 613 nM | CC50 (NCI/ADR-RES; [7]): > 50000 nM | GI50 (NCI/ADR-RES; [8]): 610 nM | GI50 (OVCAR-4): 1910 nM | GI50 (SK-MEL-28; Homo sapiens, SK-MEL-28, Melanoma, Table 1, read-out: GI50): 389 nM | CC50 (SK-MEL-28; Homo sapiens, SK-MEL-28, Melanoma, Table 1, read-out: LC50 (the source's name)): > 50000 nM | GI50 (SK-MEL-28; Homo sapiens, SK-MEL-28, melanoma, comparison versus MS275, read-out: potency (quantity not named; values match GI50 of Table 1)): 390 nM | TGI (SK-MEL-28; SK-MEL-28, Melanoma, Table 1): 6500 nM | GI50 (SR; Homo sapiens, Table 1, read-out: GI50): 484 nM | CC50 (SR; [9]): > 50000 nM | TGI (SR; Table 1): — (‘—’ indicates a concentration exceeding 50 μM.) | potency over MS275 (breast cancer cell lines): > 2 fold | GI50 (UACC-257; Homo sapiens, UACC-257, Melanoma, Table 1, read-out: GI50): 499 nM | CC50 (UACC-257; Homo sapiens, UACC-257, Melanoma, Table 1, read-out: LC50 (the source's name)): > 50000 nM | GI50 (UACC-257; Homo sapiens, UACC-257, melanoma, comparison versus MS275, read-out: potency (quantity not named; values match GI50 of Table 1)): 500 nM | TGI (UACC-257; UACC-257, Melanoma, Table 1): 15500 nM | GI50 (786-0): 1050 nM | GI50 (UACC-62; Homo sapiens, Table 1): 666 nM | CC50 (UACC-62; [9]): 20700 nM | TGI (UACC-62; Table 1): 2900 nM | GI50 (RPMI-8226; Homo sapiens, Table 1): 510 nM | CC50 (RPMI-8226; [9]): > 50000 nM | TGI (RPMI-8226; Table 1): — (‘—’ indicates a concentration exceeding 50 μM.) | GI50 (NCI-H522; Homo sapiens, NCI-H522, Non-Small Cell Lung, Table 1, read-out: GI50): 220 nM | CC50 (NCI-H522; Homo sapiens, NCI-H522, Non-Small Cell Lung, Table 1, read-out: LC50 (the source's name)): 20800 nM | GI50 (NCI-H522; Homo sapiens, NCI-H522, non-small cell lung cancer, comparison versus MS275, read-out: potency (quantity not named; values match GI50 of Table 1)): 220 nM | TGI (NCI-H522; NCI-H522, Non-Small Cell Lung, Table 1): 1400 nM | potency over MS275 (renal cancer cell lines): > 2 fold | GI50 (OVCAR-8; Homo sapiens, Table 1): 768 nM | CC50 (OVCAR-8; [9]): > 50000 nM | TGI (OVCAR-8; Table 1): 12500 nM | activity against cancer cell lines (in words) (cancer cell lines): potently inhibited | TGI (HCC-2998; HCC-2998, Colon, Table 1): 400 nM | GI50 (HCC-2998; Homo sapiens, HCC-2998, Colon, Table 1, read-out: GI50): 90 nM | CC50 (HCC-2998; Homo sapiens, HCC-2998, Colon, Table 1, read-out: LC50 (the source's name)): 2000 nM | GI50 (HCC-2998; Homo sapiens, HCC-2998, colon cancer, comparison versus MS275, read-out: potency (quantity not named; values match GI50 of Table 1)): 90 nM | GI50 (IGROV1; Homo sapiens, IGROV-1, IGROV1, Ovarian, Table 1, read-out: GI50): 245 nM | CC50 (IGROV1; Homo sapiens, IGROV-1, IGROV1, Ovarian, Table 1, read-out: LC50 (the source's name)): > 50000 nM | GI50 (IGROV1; Homo sapiens, IGROV-1, IGROV1, ovarian cancer, comparison versus MS275, read-out: potency (quantity not named; values match GI50 of Table 1)): 250 nM | TGI (IGROV1; IGROV1, Ovarian, Table 1): 10500 nM | GI50 (RXF 393; Homo sapiens, RXF 393, Renal, Table 1, read-out: GI50): 102 nM | CC50 (RXF 393; Homo sapiens, RXF 393, Renal, Table 1, read-out: LC50 (the source's name)): 46000 nM | GI50 (RXF 393; Homo sapiens, RXF 393, renal cancer, comparison versus MS275, read-out: potency (quantity not named; values match GI50 of Table 1)): 100 nM | TGI (RXF 393; RXF 393, Renal, Table 1): 600 nM | GI50 (SN12C; [3]): 629 nM | CC50 (SN12C; [4]): 27000 nM | GI50 (SN12C; [5]): 630 nM | TGI (SN12C; Renal, Table 1): 2700 nM | GI50 (MDA-MB-435; Homo sapiens, MDA-MB-435, Breast, Table 1, read-out: GI50): 98 nM | CC50 (MDA-MB-435; Homo sapiens, MDA-MB-435, Breast, Table 1, read-out: LC50 (the source's name)): ~4000 nM | GI50 (MDA-MB-435; Homo sapiens, MDA-MB-435, breast cancer, comparison versus MS275, read-out: potency (quantity not named; values match GI50 of Table 1)): 90 nM | TGI (MDA-MB-435; MDA-MB-435, Breast, Table 1): 600 nM | GI50 (LOX IMVI; Homo sapiens, Melanoma, Table 1, read-out: GI50): 99 nM | CC50 (LOX IMVI; Homo sapiens, Melanoma, Table 1, read-out: LC50 (the source's name)): 6400 nM | GI50 (LOX IMVI; Homo sapiens, melanoma, comparison versus MS275, read-out: potency (quantity not named; values match GI50 of Table 1)): 90 nM | TGI (LOX IMVI; Melanoma, Table 1): 600 nM | GI50 (KM-12): 1150 nM
